Values of other authors as cited in patent publication US10251778B2, “Therapeutics dispensing device and methods of making same” (Baylor College of Medicine, priority 2012, dated 2019).
Counter-ions that a name gives are not always drawn.

Assays:
[1] = Acrylate Polymer Nanosuspensions
[2] = not given; remark: listed apart in the source
[3] = in vitro
[4] = system: human cytomegalovirus (HCMV); conditions: Albumin Nanoparticles
[5] = Poly(butyl)-cyano acrylate Nanopartilces

Structure (SMILES): CC(C(=O)O)c1ccc(-c2ccccc2)c(F)c1 (stereo not drawn) [Flurbiprofen]
- Result (drug levels in aqueous humour) [1]: Increased drug levels in aqueous humour

Structure (SMILES): CC[C@@H]1C(=O)OC[C@@H]1Cc1cncn1C [Pilocarpine]
- Result (response) [5]: Enhanced mitotic response and decrease
- Decreased IOP ([2]; Microemulsions): Decreased IOP by 25%
- decrease in IOP [2, 5]: in IOP by 22%

Structure (SMILES): CC[C@@H]1C(=O)OC[C@@H]1Cc1cncn1C [Pilocarpine HCl]
- Result (response and ocular bioavailability) (Liposomes): Increased mitotic response and ocular

Structure (SMILES): CC[C@@H]1C(=O)OC[C@@H]1Cc1cncn1C [Pilocarpine nitrate]
- Result (miotic activity) (Dendrimers): Prolonged miotic activity

Structure (SMILES): CC(=O)Nc1nnc(S(N)(=O)=O)s1 [Acetazolamide]
- Result (IOP) ([2]; Liposomes): Produced a marked decrease in IOP

Structure (SMILES): CC[C@@H]1C(=O)OC[C@@H]1Cc1cncn1C [pilocarpine base, pilocarpine]
- transcorneal penetration relative to the ionized form [3]: 2-3 times

Structure (SMILES): Nc1nc2c(ncn2COC(CO)CO)c(=O)[nH]1 [GCV]
- Result (antiviral activity) [4]: Increased antiviral aciivity against human
